Results as given in patent publication US10364256B2 (GlaxoSmithKline Intellectual Property Development Limited, priority 2015, dated 2019).

Columns and labels:
[1] = target: T1, Keap1 Kelch domain (321-609) / TAMRA-labeled 16mer NRF2 peptide (ETGE motif) (Homo sapiens, UniProt Q14145); assay: NRF2-Keap1 FP Assay (Keap1 Kelch fluorescence polarization); type: binding; details: 20 nM Keap1 (321-609), 8 nM Tamra labeled peptide
T1 construct: the Kelch domain (321-609) of Keap1 is used
In short: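 Compound dilutions (3-fold) were incubated 1 hr at room temperature with 20 nM Keap1 Kelch (321-609) and 8 nM TAMRA-labeled ETGE 16mer peptide. Buffer was 50 mM Tris pH 8.0, 100 mM NaCl, 5 mM MgCl2, 1 mM DTT, 2 mM CHAPS, 0.005% BSA. Fluorescence polarization (mP) was normalized to controls and fitted with a four-parameter equation to give pIC50.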

[2] = target: T2, full length Keap1 protein / full length NRF2 protein (Homo sapiens, UniProt Q14145); assay: NRF2-Keap1 TR-FRET Assay; type: binding; details: 25 nM Keap1-FlagHis and 50 nM biotin-NRF2 added
T2 construct: full length NRF2 protein and full length Keap1 protein (Keap1 exists a dimer) are used; His
T2 sequence (Q14145 whole entry): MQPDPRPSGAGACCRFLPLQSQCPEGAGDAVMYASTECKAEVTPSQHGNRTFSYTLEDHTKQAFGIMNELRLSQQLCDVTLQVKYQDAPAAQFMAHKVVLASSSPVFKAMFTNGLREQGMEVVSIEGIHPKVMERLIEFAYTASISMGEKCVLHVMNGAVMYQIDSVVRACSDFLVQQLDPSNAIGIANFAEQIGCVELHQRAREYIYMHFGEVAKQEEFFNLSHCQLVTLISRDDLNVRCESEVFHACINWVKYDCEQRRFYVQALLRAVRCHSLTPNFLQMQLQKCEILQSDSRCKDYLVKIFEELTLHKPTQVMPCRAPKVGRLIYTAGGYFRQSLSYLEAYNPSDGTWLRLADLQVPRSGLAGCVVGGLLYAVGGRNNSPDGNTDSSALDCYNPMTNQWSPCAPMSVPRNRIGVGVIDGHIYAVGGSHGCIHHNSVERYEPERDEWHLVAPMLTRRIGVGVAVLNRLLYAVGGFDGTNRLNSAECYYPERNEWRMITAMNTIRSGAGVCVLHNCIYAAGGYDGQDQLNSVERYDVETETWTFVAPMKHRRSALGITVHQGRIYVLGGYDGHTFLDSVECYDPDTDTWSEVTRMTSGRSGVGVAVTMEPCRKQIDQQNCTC
In short: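 Full-length Keap1-FlagHis preincubated with compound 2.25 h at 37 °C, then biotin-NRF2 added for 1.25 h at 4 °C, in Tris pH 8.0 with MgCl2, NaCl, BSA, DTT, CHAPS. TR-FRET 665/615 nm ratio normalised to with- and without-protein 1% DMSO controls; pIC50 from four-parameter fit.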

[3] = test system: NQO1 specific enzyme activity in BEAS-2B cells (marker for NRF2 activation); assay: BEAS-2B NQO1 MTT Assay; type: cell-based; details: Homo sapiens, compound incubated 48 hours, read-out: EC50 (NQO1 specific enzyme activity induction)
In short: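 BEAS-2B cells treated with compound for 48 h at 37 °C, then lysed; NQO1 activity in lysates measured kinetically by MTT reduction at A570 over 30 min. pEC50 from 3-parameter fit of ΔOD/min versus log concentration; lysate also taken for Cell Titer Glo.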

T1 sequence (Q14145 321-609): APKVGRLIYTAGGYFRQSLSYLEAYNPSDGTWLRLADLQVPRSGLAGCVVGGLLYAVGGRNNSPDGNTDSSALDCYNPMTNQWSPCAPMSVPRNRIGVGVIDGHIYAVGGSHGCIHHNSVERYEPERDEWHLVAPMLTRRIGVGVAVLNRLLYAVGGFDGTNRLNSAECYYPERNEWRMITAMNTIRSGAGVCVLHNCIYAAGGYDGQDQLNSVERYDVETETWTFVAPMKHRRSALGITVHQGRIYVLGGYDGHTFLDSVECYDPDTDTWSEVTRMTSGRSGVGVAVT

SMILES	IC50 [1] [nM]	IC50 [2] [nM]	EC50 [3] [nM]
O=C(O)c1cnn(-c2cccc(-c3cccc(-n4ncc5c4C(C4CC4)CC5)c3)c2)c1C1CC1 (stereo not drawn) [Example 207, 5-Cyclopropyl-1-(3′-(6-cyclopropyl-5,6-dihydrocyclopenta[c]pyrazol-1(4H)-yl)-[1,1′-biphenyl]-3-yl)-1H-pyrazole-4-carboxylic Acid]	100 to 1000	1000 to 10000	1000 to 10000
Cc1nc(-c2cccc(-c3cccc(-n4ncc(C(=O)O)c4C4CC4)c3)c2)no1 [Example 211, 5-Cyclopropyl-1-(3′-(5-methyl-1,2,4-oxadiazol-3-yl)-[1,1′-biphenyl]-3-yl)-1H-pyrazole-4-carboxylic acid]	> 10000	10000 to 100000	1000 to 10000
Cn1cc(C2CC2c2c(C(=O)O)cnn2-c2cccc(-c3cccc(C(O)C4CCCCC4)c3)c2)nn1 (stereo not drawn) [Example 220, 1-(3′-(Cyclohexyl(hydroxy)methyl)-[1,1′-biphenyl]-3-yl)-5-(2-(1-methyl-1H-1,2,3-triazol-4-yl)cyclopropyl)-1H-pyrazole-4-carboxylic acid]	10 to 100	100 to 1000	1000 to 10000
